Data reported in patent US10941143B2, “Imidazo [1,5-a]pyridine compounds and their use” (Alterity Therapeutics Limited, priority 2019, dated 2021).

Test system: human neuroblastoma line BE(2)-M17 (M17) cells
Test: Measurement of Fe efflux from cells
Type: cell-based
Settings: M17 cells pre-loaded with 57Fe, compound 20 μM for 2 h, percentage increase of Fe in media relative to media without compound, read-out: % Fe Efflux Range
Procedure: Method I: Measurement of Fe Efflux from Cells
Compounds of the current invention were assessed for their ability to efflux iron (Fe) from a cell using the following protocol.
The human neuroblastoma line BE(2)-M17 (M17) cell cultures were acquired from Sigma Aldrich (Catalogue #: 95011816). M17 Cells were maintained in Opti-MEM reduced serum media supplemented with 10% fetal bovine serum (Bovogen, SFBSF) and passaged twice weekly. Cells were cultured at 37° C. in the presence of 5% CO2. Culture supplies were sourced from Thermo Fisher unless otherwise stated.
A solution of ^57Fe cold isotope was prepared by dissolving ^57Fe metal (>95% enrichment, Trace Sciences International) in concentrated HCl to give a final concentration of 573 mM. From this master solution, a 10 mM working solution was prepared in sterile water. The working solution was used within two months of preparation.
M17 cells were loaded with iron initially by seeding into 48-well plates at a density of 0.15×10^6 cells per well in 0.5 mL media. After 48 h, old media was discarded. Fresh media was supplemented with 20 μM ^57Fe isotope, from the 10 mM ^57Fe working solution. Cells received 0.2 mL of this ^57Fe enriched media and were returned to the incubator for 20 h. The ability of experimental compounds to efflux iron was determined by the dissolution of compounds in DMSO and diluted in Hanks' Balanced Salt Solution (HBSS) for treatment of M17 cells. After ^57Fe incubation, cells were rinsed twice with HBSS and treated with 0.15 mL trial compound for 2 h at a concentration of 20 μM. All assays included a relevant vehicle (0.4%-0.8% DMSO) as well as a positive control (20 μM). Following the treatment period, 0.1 mL of media was collected from cells and the extracellular ^57Fe content was analysed via inductively coupled mass spectrometry (ICP-MS, Agilent 7700x series instrument).
To perform this protocol the following supplies were purchased from Sigma Aldrich: anhydrous dimethyl sulfoxide (DMSO, Catalogue #: 276855), Hanks' Balanced Salt Solution supplemented with 20 mM HEPES and 4.2 mM Sodium Bicarbonate (HBSS, pH: 7.4, Catalogue #: H1387).
After 2 h the Fe levels in the media were measured and the increase determined as a percentage increase relative to the cell media in the absence of the compound.

Row | SMILES | activation at 20 µM [%]
1 | Oc1ccccc1-c1nc(-c2ccccc2O)n2ncccc12 [Compound 102, 2,2′-(Imidazo[1,5-b]pyridazine-5,7-diyl)diphenol] | < 30
2 | Oc1ccccc1-c1nc(-c2cccc(F)c2O)n2ncccc12 [Compound 103] | 30 to 100
3 | Oc1ccccc1-c1nc(-c2cccc(Cl)c2O)n2ncccc12 [Compound 104] | < 30
4 | Oc1ccccc1-c1nc(-c2ccccc2O)n2cccnc12 [Compound 107, 2,2′-(Imidazo[1,5-a]pyrimidine-6,8-diyl)diphenol] | 30 to 100
5 | Cc1cccc(-c2nc(-c3ccccc3O)c3ncccn23)c1O [Compound 108] | < 30
6 | Oc1cnccc1-c1nc(-c2ccccc2O)n2ccccc12 [Compound 110] | > 150
7 | Oc1cnccc1-c1nc(-c2cccc(F)c2O)n2ccccc12 [Compound 111] | 100 to 150
8 | Oc1cnccc1-c1nc(-c2cccc(Cl)c2O)n2ccccc12 [Compound 112] | 100 to 150
9 | Oc1cnccc1-c1nc(-c2cc(F)cc(F)c2O)n2ccccc12 [Compound 114, 4-(3-(3,5-Difluoro-2-hydroxyphenyl)imidazo[1,5-a]pyridin-1-yl)pyridin-3-ol] | 100 to 150
10 | Oc1ccccc1-c1nc(-c2ncccc2O)c2cccnn12 [Compound 120, 2-(7-(2-Hydroxyphenyl)imidazo[1,5-b]pyridazin-5-yl)pyridin-3-ol] | 100 to 150
11 | Oc1cccnc1-c1nc(-c2cccc(F)c2O)n2ncccc12 [Compound 121] | > 150
12 | Oc1cccnc1-c1nc(-c2cccc(Cl)c2O)n2ncccc12 [Compound 122] | > 150
13 | Cc1ccc(O)c(-c2nc(-c3ncccc3O)c3cccnn23)c1 [Compound 123] | > 150
14 | CN(C)Cc1cccc(-c2nc(-c3ccccc3O)c3ccccn23)c1O [Compound 124, 2-((Dimethylamino)methyl)-6-(1-(2-hydroxyphenyl)imidazo[1,5-a]pyridin-3-yl)phenol] | > 150
15 | COc1cnccc1-c1nc(-c2ccccc2O)c2ccccn12 [Compound 125] | < 30
16 | COC(=O)c1ccccc1-c1nc(-c2ncccc2O)c2ccccn12 [Compound 126] | < 30
17 | Oc1cccnc1-c1nc(-c2ccc(Cl)cc2)n2ccccc12 [Compound 127] | < 30
18 | Oc1cccnc1-c1nc(-c2ccccc2F)n2ccccc12 [Compound 130, 2-(3-(2-Fluorophenyl)imidazo[1,5-a]pyridin-1-yl)pyridin-3-ol] | < 30
19 | Oc1ccccc1-c1nc(-c2cccnc2O)c2ccccn12 [Compound 141, 3-(3-(2-Hydroxyphenyl)imidazo[1,5-a]pyridin-1-yl)pyridin-2-ol] | 100 to 150
20 | Cc1cccc(-c2nc(-c3cccnc3O)c3ccccn23)c1O [Compound 142] | 30 to 100
21 | Oc1cc(Cl)ccc1-c1nc(-c2cccnc2O)c2ccccn12 [Compound 143] | < 30
22 | Oc1ccc(F)cc1-c1nc(-c2cccnc2O)c2ccccn12 [Compound 144, 3-(3-(5-Fluoro-2-hydroxyphenyl)imidazo[1,5-a]pyridin-1-yl)pyridin-2-ol] | 100 to 150
23 | Oc1ncccc1-c1nc(-c2cc(F)cc(F)c2O)n2ccccc12 [Compound 145] | 100 to 150
24 | CCN(CC)c1ccc(-c2nc(-c3cccnc3O)c3ccccn23)c(O)c1 [Compound 146] | 30 to 100
25 | Cc1ccc(O)c(-c2nc(-c3cccnc3O)c3ccccn23)c1 [Compound 147, 3-(3-(2-Hydroxy-5-methylphenyl)imidazo[1,5-a]pyridin-1-yl)pyridin-2-ol] | 100 to 150
26 | Oc1ncccc1-c1nc(-c2cccc(F)c2O)n2ccccc12 [Compound 148] | 30 to 100
27 | Oc1ccc(Cl)cc1-c1nc(-c2cccnc2O)c2ccccn12 [Compound 149] | 30 to 100

Row | SMILES | activation at 20 µM [%]
28 | Oc1ncccc1-c1nc(-c2cccc(Cl)c2O)n2ccccc12 [Compound 150] | 30 to 100
29 | Oc1cccc(F)c1-c1nc(-c2cccnc2O)c2ccccn12 [Compound 152] | 30 to 100
30 | COc1ccncc1-c1nc(-c2ccccc2O)n2ccccc12 [Compound 153] | < 30
31 | COc1ccncc1-c1nc(-c2cc(F)ccc2O)n2ccccc12 [Compound 154] | < 30
32 | COc1ccncc1-c1nc(-c2cc(F)cc(F)c2O)n2ccccc12 [Compound 155] | < 30
33 | COc1ccncc1-c1nc(-c2c(O)cccc2F)n2ccccc12 [Compound 156] | < 30
34 | COc1ccncc1-c1nc(-c2cccc(F)c2O)n2ccccc12 [Compound 157] | < 30
35 | Oc1ccncc1-c1nc(-c2ccccc2O)n2ccccc12 [Compound 158] | 30 to 100
36 | Oc1ccncc1-c1nc(-c2cc(F)ccc2O)n2ccccc12 [Compound 159] | 30 to 100
37 | Oc1ccncc1-c1nc(-c2cc(F)cc(F)c2O)n2ccccc12 [Compound 160] | 30 to 100
38 | Oc1ccncc1-c1nc(-c2c(O)cccc2F)n2ccccc12 [Compound 161] | 30 to 100
39 | Oc1ccncc1-c1nc(-c2cccc(F)c2O)n2ccccc12 [Compound 162] | 30 to 100
40 | COc1ccncc1-c1nc(-c2cccc(C)c2O)n2ccccc12 [Compound 163] | < 30
41 | CN(C)Cc1cccc(-c2nc(-c3cccnc3O)c3ccccn23)c1O [Compound 168] | < 30
42 | Cc1ccc(O)c(-c2nc(-c3cnccc3O)c3ccccn23)c1 [Compound 169] | 30 to 100
43 | Oc1ccncc1-c1nc(-c2cccc(Cl)c2O)n2ccccc12 [Compound 171] | 30 to 100
44 | Oc1ccncc1-c1nc(-c2c(O)cccc2Cl)n2ccccc12 [Compound 172] | 30 to 100
45 | Oc1cnccc1-c1nc(-c2ccccc2O)n2ccncc12 [Compound 174] | > 150
46 | Oc1cnccc1-c1nc(-c2cccc(F)c2O)n2ccncc12 [Compound 175] | > 150
47 | Cc1cccc(-c2nc(-c3ccncc3O)c3cnccn23)c1O [Compound 177] | > 150
48 | Oc1cnccc1-c1nc(-c2cc(F)ccc2O)n2ccncc12 [Compound 178] | > 150
49 | Oc1cnccc1-c1nc(-c2cc(Cl)ccc2O)n2ccncc12 [Compound 179] | > 150
50 | Cc1ccc(O)c(-c2nc(-c3ccncc3O)c3cnccn23)c1 [Compound 180] | > 150
51 | Oc1cnccc1-c1nc(-c2ccccc2O)n2ncccc12 [Compound 181] | 100 to 150
52 | Cc1ccc(O)c(-c2nc(-c3ccncc3O)c3cccnn23)c1 [Compound 182] | 30 to 100
53 | Oc1cnccc1-c1nc(-c2ccccc2O)n2cccnc12 [Compound 185] | 100 to 150
54 | Cc1ccc(O)c(-c2nc(-c3ccncc3O)c3ncccn23)c1 [Compound 186] | 30 to 100
